Values joined by “and” are separate entries in the source; they are usually repeats but may differ in a detail not shown here. Identical values can stand only once.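 Interpolation was linear, between the two tested concentrations surrounding the appropriate level; five concentrations were tested over 48 hours in 96-well plates. GI50: concentration for 50% inhibition of growth. The concentration for full growth arrest is given as TGI.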
Assays:
Test in all cases: growth of human tumour cells (NCI), 48 h
HCT-116 colon = system: HCT-116 colon
OVCAR-3 ovarian = system: OVCAR-3 ovarian
NCI-H460 lung = system: NCI-H460 lung
MDA-MB-435 = system: MDA-MB-435
HCT-15 colon = system: HCT-15 colon
SF-295 CNS = system: SF-295 CNS
SK-MEL-2 melanoma = system: SK-MEL-2 melanoma
MOLT-4 leukemia = system: MOLT-4 leukemia
SR leukemia = system: SR leukemia
K-562 leukemia = system: K-562 leukemia

SMILES | GI50 (HCT-116 colon) | TGI (HCT-116 colon) | GI50 (OVCAR-3 ovarian) | TGI (OVCAR-3 ovarian) | GI50 (NCI-H460 lung) | TGI (NCI-H460 lung) | GI50 (MDA-MB-435) | TGI (MDA-MB-435) | GI50 (HCT-15 colon) | TGI (HCT-15 colon) | GI50 (SF-295 CNS) | TGI (SF-295 CNS) | GI50 (SK-MEL-2 melanoma) | TGI (SK-MEL-2 melanoma) | GI50 (MOLT-4 leukemia) | TGI (MOLT-4 leukemia) | GI50 (SR leukemia) | TGI (SR leukemia) | GI50 (K-562 leukemia) | TGI (K-562 leukemia)
COc1cc(/C=C2\C(=O)N(Cc3ccc(Cl)cc3)c3ccccc32)cc(OC)c1OC | 1.68 µM | 3.19 µM | 1.57 µM | 3.31 µM | 2.82 µM | 8.38 µM | 2.32 µM | 7.03 µM | 1.68 µM | 3.43 µM | 4.41 µM | 32.3 µM | 4.86 µM | 18 µM | 2.2 µM | 5.97 µM | 1.51 µM | 4.19 µM | 2.78 µM | 16.4 µM
O=C(Nc1ccc(Oc2ccc3nc(NC(=O)c4ccco4)[nH]c3c2)cc1)Nc1cc(C(F)(F)F)ccc1F | 0.437 µM | 4.57 µM | 2.9 µM | 7.22 µM | 1.35 µM | 6.85 µM | 0.973 µM | 7.71 µM | 1.33 µM | > 17.2 µM | 1.76 µM | > 12.2 µM | 0.668 µM | 4.37 µM | 2.21 µM | 15.7 µM | 0.964 µM | 7.36 µM | 0.0122 µM | 6.11 µM
O=C1NC(=S)S/C1=C\c1cn(-c2ccccc2)nc1-c1ccccc1 | 5.62 µM | 21.3 µM | 11.6 µM | 29 µM | 5.5 µM | 19.2 µM | 4.91 µM | 36.6 µM | 4.71 µM | 23.2 µM | 3.33 µM | 17.2 µM | 4.18 µM | 19.4 µM | 14.8 µM | > 100 µM | 7.29 µM | 49.7 µM | 7.54 µM | > 100 µM
CN=C(N)c1ccc(N=C(N)c2ccc(-c3ccc(C(N)=Nc4ccc(C(N)=NC)cc4)cc3)cc2)cc1 | 75.8 µM | > 100 µM | > 100 µM | > 100 µM | 55.8 µM | > 100 µM | 59.2 µM | > 100 µM | > 100 µM | > 100 µM | 41.1 µM | > 100 µM | 35.1 µM | > 100 µM | > 100 µM | > 100 µM | > 100 µM | > 100 µM | 89.5 µM | > 100 µM
CCOCC1(COCC)CCC(c2[nH]ncc2CN(C)CCNC)CC1 | > 100 µM | > 100 µM | > 100 µM | > 100 µM | > 100 µM | > 100 µM | > 100 µM | > 100 µM | > 100 µM | > 100 µM | > 100 µM | > 100 µM | > 100 µM | > 100 µM | > 100 µM | > 100 µM | 23.7 µM | > 100 µM | 28.8 µM | > 100 µM
CC(C)(C)c1cc(C(=O)Nc2ccccc2C(=O)NCCN)cc(C(C)(C)C)c1 | 1.8 µM | 3.25 µM | 1.89 µM | 3.46 µM | 1.94 µM | 3.67 µM | 1.72 µM | 3.24 µM | 1.89 µM | 3.45 µM | 1.88 µM | 3.59 µM | 1.94 µM | 3.7 µM | 2.2 µM | 4.86 µM | 1.94 µM | 4.56 µM | 2.23 µM | 5.33 µM
COc1cc2oc(-c3cccc(C(=O)Nc4ccc(Cl)cc4)c3)cc(=O)c2c(OC)c1OC | 1.9 µM | > 100 µM | 3.6 µM | > 100 µM | 2.76 µM | > 100 µM | 3.15 µM | > 100 µM | 1.61 µM | > 100 µM | 1.47 µM | 3.51 µM | 2.96 µM | 9.22 µM | 2.22 µM | > 100 µM | 0.493 µM | > 100 µM | 2.77 µM | > 100 µM
O=C1NC(=NCCc2ccc(F)cc2)S/C1=C\c1ccc2ncccc2c1 | 13.8 µM | > 25 µM | > 25 µM | > 25 µM | > 25 µM | > 25 µM | > 25 µM | > 25 µM | > 25 µM | > 25 µM | > 25 µM | > 25 µM | > 25 µM | > 25 µM | > 25 µM | > 25 µM | 7.09 µM | > 25 µM | > 25 µM | > 25 µM
CCCn1c2c(c3ccccc3c1=O)C(=O)c1ccccc1-2 |  | > 100 µM |  | > 100 µM |  | > 100 µM |  | > 100 µM |  | > 100 µM |  | > 100 µM |  | > 100 µM |  | > 100 µM |  | > 100 µM |  | > 100 µM
CCOC(=O)c1c(-c2ccccc2)[n+](=O)c2cc(Cl)c(Cl)cc2n1[O-] | 2.57 µM | 11.1 µM | 1.8 µM | 4.41 µM | 18.9 µM | 46.7 µM | 5.36 µM | 19 µM | 6.55 µM | 21 µM | 4.17 µM | 15.9 µM | 18.9 µM | > 100 µM | > 100 µM | > 100 µM | 0.529 µM | > 100 µM | 3.29 µM | > 100 µM
O=C(Nc1ccc(Oc2ccc(F)cc2)cc1)[C@@H]1C[C@@H](Cc2ccc(F)cc2)CN1C(=O)Cn1ccnn1 | 4.79 µM | 17.3 µM | 8.12 µM | 26.7 µM | 5.37 µM | 21.4 µM | 7.16 µM | 23.7 µM | 5.04 µM | 23.1 µM | 3.64 µM | 14.2 µM | 8.05 µM | 23 µM | 4.2 µM | 31.6 µM | 3.14 µM | 14.2 µM | 5.61 µM | > 65 µM
O=C1CC(c2c[nH]c3ccc(F)cc23)C(=O)N1 (stereo not given) | > 100 µM | > 100 µM | > 100 µM | > 100 µM | > 100 µM | > 100 µM | > 100 µM | > 100 µM | > 100 µM | > 100 µM | > 100 µM | > 100 µM | > 100 µM | > 100 µM | > 100 µM | > 100 µM | > 100 µM | > 100 µM | > 100 µM | > 100 µM
CC(=O)OCC1OC(n2c(=S)n(-c3ccc([N+](=O)[O-])cc3)c(=O)c3ccccc32)C(OC(C)=O)C(OC(C)=O)C1OC(C)=O (stereo not given) | 18.1 µM and 25.2 µM | > 100 µM | 20 µM | 47.5 µM and 49.8 µM |  | > 69.8 µM and 68.2 µM |  | > 100 µM |  | > 100 µM |  | > 59.8 µM and 62.3 µM | 12 µM and 22.5 µM | 17.4 µM and 58.8 µM |  | > 95.1 µM | 4.67 µM | > 100 µM | 10.7 µM and 27.2 µM | > 100 µM
CC(=O)Nc1ccc(C(=O)CCl)cc1 | 2.2 µM | 4.95 µM | 2.55 µM | 5.82 µM | 10.8 µM | 26 µM | 4.74 µM | 16.6 µM | 2.39 µM | 7.6 µM | 16 µM | 33.7 µM | 13.3 µM | 27.8 µM | 2.92 µM | 7.06 µM | 2.63 µM | 7.33 µM | 2.48 µM | 5.88 µM

From PubChem BioAssay (NCI)
